Laboratory results reported in PubChem BioAssay (NCI).
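Step 1: Grow cells in 96-well plates. Step 2: Expose to compound for 48 hours at 5 concentrations. Step 3: Interpolate endpoints linearly; if unreached, use highest concentration. TGI is the concentration that stops growth completely.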

Tests used:
Assay in all cases: NCI-60 cell line screen, 48 h
[1] = tested on: UACC-62 melanoma
[2] = tested on: MALME-3M melanoma
[3] = tested on: ACHN renal
[4] = tested on: KM12 colon
[5] = tested on: SF-268 CNS
[6] = tested on: SNB-75 CNS
[7] = tested on: OVCAR-5 ovarian
[8] = tested on: U251 CNS
[9] = tested on: OVCAR-3 ovarian
[10] = tested on: NCI/ADR-RES ovarian
[11] = tested on: NCI-H226 lung
[12] = tested on: OVCAR-4 ovarian
[13] = tested on: EKVX NSCLC
[14] = tested on: NCI-H23 lung
[15] = tested on: LOX IMVI melanoma
[16] = tested on: MDA-MB-231 breast
[17] = tested on: SR leukemia
[18] = tested on: MDA-MB-435
[19] = tested on: HCT-116 colon
[20] = tested on: A498 renal
[21] = tested on: HOP-62 NSCLC
[22] = tested on: A549 NSCLC
[23] = tested on: DU-145 prostate
[24] = tested on: PC-3 prostate
[25] = tested on: SN12C renal
[26] = tested on: HCT-15 colon
[27] = tested on: SNB-19 CNS
[28] = tested on: RPMI-8226 leukemia
[29] = tested on: MOLT-4 leukemia
[30] = tested on: HL-60(TB) leukemia
[31] = tested on: SW-620 colon
[32] = tested on: SK-MEL-5 melanoma
[33] = tested on: NCI-H522 lung
[34] = tested on: COLO 205 colon
[35] = tested on: HT29 colon
[36] = tested on: SK-MEL-28 melanoma
[37] = tested on: SK-MEL-2 melanoma
[38] = tested on: NCI-H460 lung
[39] = tested on: RXF 393 renal
[40] = tested on: BT-549 breast
[41] = tested on: SK-OV-3 ovarian
[42] = tested on: 786-0 renal
[43] = tested on: TK-10 renal
[44] = tested on: UO-31 renal
[45] = tested on: HOP-92 NSCLC
[46] = tested on: OVCAR-8 ovarian
[47] = tested on: MDA-N
[48] = tested on: SF-539 CNS
[49] = tested on: HS 578T breast
[50] = tested on: M14 melanoma
[51] = tested on: IGROV1 ovarian
[52] = tested on: T-47D breast
[53] = tested on: MCF7 breast
[54] = tested on: SF-295 CNS
[55] = tested on: K-562 leukemia
[56] = tested on: CAKI-1 renal

Measured: TGI

Cc1ccc(C2(C)CC/C(=N/N=C3/CCC(C)(c4ccc(C)c(C)c4)c4cc(C)c(C)cc43)c3cc(C)c(C)cc32)cc1C (stereo unspecified)
> 100 µM: [1] | [2] | [3] | [4] | [5] | [6] | [7] | [8] | [9] | [10] | [11] | [12] | [13] | [14] | [15] | [16] | [17] | [18] | [19] | [20] | [21] | [22] | [23] | [24] | [25] | [26] | [27] | [28] | [29] | [30] | [31] | [32] | [33] | [34] | [35] | [36] | [37] | [38] | [39] | [40] | [41] | [42] | [43] | [44] | [45] | [46] | [47] | [48] | [49] | [50] | [51] | [52] | [53] | [54] | [55] | [56]
